This assay is described as follows: free radical inhibition assay: inhibition of polymerization of acrylic acid to polyacrylic acid. As to conditions: for % Polymerization (after 3 hours at 85° C.): 30% acrylic acid in water, 200 ml, 0.6 ml of 1% inhibitor solution, initiated with azobisisobutyronitrile, remaining acrylic acid by iodine value. An excerpt:
A presently preferred method for determining the free radical inhibitory capacity of a compound is based on the ability of such a compound to inhibit free radical polymerization of acrylic acid to polyacrylic acid. […] As will be appreciated, the amount of polyacrylic acid formed is inversely related to the amount of acrylic acid (i.e., monomer) remaining in the reaction mixture at the end of the assay. The amount of acrylic acid may be routinely determined by measuring the iodine value of the reaction mixture or by other methods known in the art for determinating unsaturation. A well-known free radical inhibitor compound such as hydroquinone mono methyl ether (HQMME) may be used as a standard inhibitor compound in the assay.
Into each of three 250 ml beakers, labeled “1,” “2,” and “3” respectively, is added 200 ml of a 30% solution of acrylic acid (in water). One-tenth gram of 1,3-di(3-methoxybenzyl)thiourea was dissolved in 9.9 grams of isopropyl alcohol to give a 1% (w/w) solution of the free radical inhibitor compound. […] One-tenth gram of azobisisobutyronitrile (a free radical initiator) was dissolved in 9.9 grams of isopropyl alcohol to provide a 1% solution of the free radical initiator. To beaker 1, containing 200 ml of the acrylic acid solution was added 0.6 ml of the 1% solution of 1,3-di(3-methoxybenzyl)thiourea. To beaker 2, containing 200 ml of the acrylic acid solution was added 0.6 ml of the 1% solution of hydroquinone mono methyl ether. To beaker 3 was added 0.6 ml of isopropyl alcohol (no inhibitor). […] After 3 hours, the beakers were removed from the hot plate to stop the reaction from progressing further, and the amount of acrylic acid which remained in the reaction mixture was determined by measuring the iodine value of an aliquot of the reaction mixture using the A.O.C.S. Method Tg 1a-64T in Official Methods And Recommended Practices Of The AOCS, by American Oil Chemists' Society, Champaign, Ill.

Each structure is given as a SMILES string.

Consider `COc1ccc(O)cc1` [hydroquinone mono methyl ether, reference compound], for which the “% Polymerization (after 3 hours at 85° C.)” value is recorded as 78.6%.

With `COc1cccc(CNC(=S)NCc2cccc(OC)c2)c1` [1,3-di(3-methoxybenzyl)thiourea, 1,3-di-(3-methoxybenzyl) thiourea], the “% Polymerization (after 3 hours at 85° C.)” value came out at 48.6%. The “inhibition of the free radical polymerization reaction (in words)” value (assay of Example 10, 85° C., 3 hours) is recorded as “strongly inhibited”.
